{"source": "patent US20080058211A1", "about": "“Method and Composition for the Modulation of Toxin Resistance in Plant Cells” (BOARD OF REGENTS, THE UNIVERSITY OF TEXAS SYSTEM, priority 2006, published 2008)", "key": {"roots": {"tested_on": "roots", "conditions": "in vivo; cited from earlier work"}, "[Ca^2+]cyt": {"tested_on": "[Ca^2+]cyt", "conditions": "dextran-conjugated calcium green as reporter; cited from earlier work"}, "[1]": {"tested_on": "ATMEKK1, ATMPK3, ATPK19, ERF2, ERF3, ERF4 and ACS6 genes", "conditions": "cited from earlier work"}, "[2]": {"tested_on": "root hairs of Arabidopsis thaliana", "conditions": "cited from earlier work; for induction of membrane depolarization: applied nucleotide or phosphate"}, "Δ[Ca^2+]cyt": {"tested_on": "Δ[Ca^2+]cyt", "conditions": "co-application with OGA; cited from earlier work"}, "Arabidopsis pollen": {"tested_on": "Arabidopsis pollen", "test": "in vitro pollen germination (Arabidopsis)", "format": "cell-based, Arabidopsis thaliana", "description": "Effects of Extracellular ATPγS and AMPαS on Pollen Germination. Arabidopsis pollen was germinated in pollen germination media (PGM) containing from about zero to about 400 μM ATPγS or AMPαS. […] The method of collection included vortexing flowers in PGM creating a homogenous suspension of pollen from tens to hundreds of flowers. This method caused the release of a small amount of ATP, 2-5 μM into the PGM (data not shown).\nThe nitric oxide signaling pathway mediates the inhibition of Arabidopsis pollen germination by ATPγS. To examine the downstream effectors involved in the inhibition of Arabidopsis pollen germination by ATPγS, different agonists and antagonists of the known nitric oxide signaling pathway were examined. […] Some of the nitric oxide signaling pathway agonists are water soluble while others are DMSO soluble.\nStrains and Growth Conditions. For the experiments related to the nitric oxide-ATP signaling relationship, all Arabidopsis thaliana plants were ecotype Wassilewskija (WS), and Medicago truncatula plants were strain A17. All of the plants were grown in Metro-Mix 200 soil at 24° C. with constant light. In vitro Pollen Germination. Arabidopsis flowers in stage 12-14 (Smyth et al., 1990) or Medicago truncatula flowers in stage F3 (Firnhaber et al., 2005) were collected and vortexed for 1 min in pollen germination media (PGM) (0.01% boric acid, 1 mM MgSO4, 1 mM CaCl2, 1 mM Ca(NO3)2, 5 mM HEPES, 18% Sucrose pH 7.0). The supernatant containing the pollen was collected by pipet, and up to three rounds of vortexing of the same pollen could be pooled together. The pollen suspended in PGM was then added in 10-12 μL drops to 400 μL PGM+1% agar that had been spread as a thin film across a microscope slide. The slides and pollen were then placed into humidity chambers, petri dishes with water saturated kimwipes, and allowed to germinate at 26° C. overnight. Pictures of the germinated pollen were taken with a digital camera attached to a brightfield microscope at 40×. The digital images were scored for the percent of pollen germinated using the AlphaEase software from Alpha Innotech. Pollen with tubes that were shorter than the diameter of the pollen grain were not counted as germinated or non-germinated. The chemicals: ATPγS, AMPαS, N2, 2-O-dibutyrylguanosine 3′:5′-cyclic monophospohate (Dib cGMP), Sildenafil citrate (Viagra™, Pfizer), and 2-(N,N-Diethylamino)-diazenolate 2-oxide (NONOate) were added to the pollen/PGM suspension prior to adding the drops to the PGM+1% agar. The chemicals 1H-[1,2,4]Oxadiazolo[4,3,-a]quinoxalin-1-one (ODQ), N-[4-[1-(3-Aminopropyl)-2-hydroxy-2-nitrosohydrazino]butyl]-1,3-propanediamine (SNAP), and 3-isobutyl-1-methylxanthine (IBMX) were diluted in DMSO and added to the pollen/PGM suspension to a final concentration of DMSO of 0.1%.\nFor successful pollen germination it was critical for the plants to be healthy and growing in slightly dry soil. To achieve this, the plants were briefly watered 1-2 days before the experiment. As Johnson-Brousseau and McCormick note in their paper (Johnson-Brousseau and McCormick 2004), a solid base is necessary for best in vitro germination of Arabidopsis pollen. The pollen would not germinate in liquid PGM if not overlaid on a solid PGM+1% agar base, and the vortexing and deposition of the pollen/PGM suspension needed to take place in less than 30 minutes or germination rates dropped considerably."}, "[3]": {"tested_on": "[Ca^2+]cyt in excised roots", "conditions": "cited from earlier work; for effect on [Ca2+]cyt: 10 mM CaCl2; for suppression of the response of roots to eATP: antagonist or channel blocker with eATP"}, "Arabidopsis leaves": {"tested_on": "Arabidopsis leaves", "conditions": "cited from earlier work"}, "Arabidopsis pollen tubes": {"tested_on": "Arabidopsis pollen tubes", "test": "pollen tube elongation", "format": "cell-based, Arabidopsis thaliana", "conditions": "0.5% DMSO", "description": "Arabidopsis pollen tube elongation is inhibited by ATPγS. As vesicles fuse to deliver membranes to the tip of elongating pollen tubes, ATP is likely to be released. So ATPγS and AMPαS were investigated for their ability to affect pollen tube elongation. After pollen tubes had begun to grow, from about 0 to about 250 μM ATPγS or AMPαS were added and the subsequent growth rate was determined.\nBlocking the nitric oxide signaling pathway reverses the inhibition of Arabidopsis elongation by ATPγS. The inhibition of Arabidopsis pollen tube elongation was also mediated via the NO signaling pathway. Pollen tube growth rates were measured in 0.5% DMSO with and without 100 μM ATPγS.\nMeasurements of pollen tube elongation. Pollen was germinated as described above except 10 μL drops of pollen/PGM suspension were added to 60 μL of PGM+1% agar that had been deposited into a concavity slide. The pollen was allowed to germinate for 1-2 h, so that pollen tubes were clearly visible. Then 90 μL of PGM or PGM containing ATPγS, AMPαS, DMSO or ODQ was added and a photo was taken using a brightfield microscope at 40×. The coordinates of each photo were noted, so that the exact pollen tubes could be photographed 50-60 minutes later. Using Image J, the pollen tube lengths for individual pollen tubes were measured and a growth rate of μm/min was determined."}, "[4]": {"conditions": "water-soluble agonist plus 50 μM ATPγS"}, "[5]": {"conditions": "DMSO-soluble agonist plus 50 μM ATPγS, 0.1% DMSO"}}, "note": "pEC50: −log10 of the molar value."}
{"compound": "Nc1ncnc2c1ncn2[C@@H]1O[C@H](COP(=O)(O)OP(=O)(O)O)[C@@H](O)[C@H]1O", "note": "[ADP]", "values": [{"measurement": "concentration that could inhibit the straight growth of roots", "setting": "roots", "result": 3, "unit": "mM"}, {"measurement": "change in [Ca2+]cyt", "setting": "[Ca^2+]cyt", "result": "no change"}, {"measurement": "abundance of mRNAs (MAP kinases, ERF2, ERF3, ERF4, ACS6)", "setting": "[1]; application of 500 μM", "result": "induced an increased abundance"}, {"measurement": "induction of membrane depolarization", "setting": "[2]", "result": "induced large depolarizations"}, {"measurement": "pEC50", "setting": "[2]; dose-response studies, read-out: half-maximal depolarization", "result": "~5.00"}]}
{"compound": "Nc1ncnc2c1ncn2[C@@H]1O[C@H](COP(=O)(O)OP(O)(O)=S)[C@@H](O)[C@H]1O", "note": "[ADPβS]", "values": [{"measurement": "effect on Δ[Ca2+]cyt together with OGA", "setting": "Δ[Ca^2+]cyt", "result": "similarly increased"}, {"measurement": "concentration that could inhibit the straight growth of roots", "setting": "roots", "result": 0.3, "unit": "mM"}, {"measurement": "agonist of pollen responses", "setting": "Arabidopsis pollen", "result": "active agonist"}]}
{"compound": "Nc1ncnc2c1ncn2[C@@H]1O[C@H](COP(O)(O)=S)[C@@H](O)[C@H]1O", "note": "[AMPS]", "values": [{"measurement": "effect on Δ[Ca2+]cyt together with OGA", "setting": "Δ[Ca^2+]cyt", "result": "significant inhibitory effect"}]}
{"compound": "Nc1ncnc2c1ncn2[C@@H]1O[C@H](COP(=O)(O)O)[C@@H](O)[C@H]1O", "note": "[AMP]", "values": [{"measurement": "effect on [Ca2+]cyt", "setting": "[3]; excised roots", "result": "Neither AMP or phosphate induced any significant change"}, {"measurement": "effect on superoxide production", "setting": "Arabidopsis leaves; equivalent concentrations delivered into the leaves", "result": "no significant effect"}, {"measurement": "induction of membrane depolarization", "setting": "[2]", "result": "did not"}]}
{"compound": "Nc1ccn([C@@H]2O[C@H](COP(=O)(O)OP(=O)(O)OP(=O)(O)O)[C@@H](O)[C@H]2O)c(=O)n1", "note": "[CTP]", "values": [{"measurement": "induction of membrane depolarization", "setting": "[2]", "result": "did not"}]}
{"compound": "CCCC(=O)Nc1nc2c(ncn2C2OC3COP(=O)([O-])OC3C2OC(=O)CCC)c(=O)[nH]1.[Na+]", "note": "(centres unmarked) [DibcGMP, N2,2-O-dibutyrylguanosine 3′:5′-cyclic monophospohate]", "values": [{"measurement": "effect of added NO pathway agonist on pollen germination with ATPγS", "setting": "Arabidopsis pollen; [4]", "result": "caused 50 μM ATPγS to become inhibitory"}]}
{"compound": "Nc1nc2c(ncn2[C@@H]2O[C@H](COP(=O)(O)OP(=O)(O)OP(=O)(O)O)[C@@H](O)[C@H]2O)c(=O)[nH]1", "note": "[GTP]", "values": [{"measurement": "induction of membrane depolarization", "setting": "[2]", "result": "induced large depolarizations"}]}
{"compound": "CC(C)Cn1c(=O)n(C)c(=O)c2[nH]cnc21", "note": "[IBMX, 3-isobutyl-1-methylxanthine]", "values": [{"measurement": "effect of added NO pathway agonist on pollen germination with ATPγS", "setting": "Arabidopsis pollen; [5]", "result": "cause 50 μM ATPγS to inhibit pollen germination"}]}
{"compound": "CCN(CC)[N+]([O-])=NO", "note": "[NONOate, 2-(N,N-Diethylamino)-diazenolate 2-oxide]", "values": [{"measurement": "effect of added NO pathway agonist on pollen germination with ATPγS", "setting": "Arabidopsis pollen; [4]", "result": "caused 50 μM ATPγS to become inhibitory"}]}
{"compound": "O=c1onc2cnc3ccccc3n12", "note": "[ODQ, 1H-[1,2,4]Oxadiazolo[4,3,-a]quinoxalin-1-one]", "values": [{"measurement": "effect on pollen tube elongation alone", "setting": "Arabidopsis pollen tubes; 100 μM ODQ alone", "result": "no effect"}, {"measurement": "reversal of inhibition of pollen tube elongation", "setting": "Arabidopsis pollen tubes; 100 μM ODQ with 100 μM ATPγS", "result": "reversed the inhibition"}, {"measurement": "reversal of inhibition of pollen germination", "setting": "Arabidopsis pollen; 100 μM ODQ with 250 μM ATPγS", "result": "reverse the inhibition"}]}
{"compound": "Cc1nc(N=Nc2ccc(S(=O)(=O)O)cc2S(=O)(=O)O)c(COP(=O)(O)O)c(C=O)c1O", "note": "[PPADS, pyridoxalphosphate-6-azophenyl-2′,4′-disulfonic acid]", "values": [{"measurement": "suppression of the response of roots to eATP", "setting": "[3]", "result": "completely suppressed"}, {"measurement": "blocking of ATP-induced superoxide production", "setting": "Arabidopsis leaves; inhibitor treatment", "result": "block the response"}]}
{"compound": "NCCCNCCCCN(CCCN)N(O)N=O", "note": "[SNAP, N-[4-[1-(3-Aminopropyl)-2-hydroxy-2-nitrosohydrazino]butyl]-1,3-propanediamine]", "values": [{"measurement": "effect of added NO pathway agonist on pollen germination with ATPγS", "setting": "Arabidopsis pollen; [5]", "result": "cause 50 μM ATPγS to inhibit pollen germination"}]}
{"compound": "Cc1cn([C@H]2C[C@H](O)[C@@H](COP(=O)(O)OP(=O)(O)OP(=O)(O)O)O2)c(=O)[nH]c1=O", "note": "[TTP]", "values": [{"measurement": "induction of membrane depolarization", "setting": "[2]", "result": "did not"}]}
{"compound": "O=c1ccn([C@@H]2O[C@H](COP(=O)(O)OP(=O)(O)OP(=O)(O)O)[C@@H](O)[C@H]2O)c(=O)[nH]1", "note": "[UTP]", "values": [{"measurement": "concentrations at which ineffective on [Ca2+]cyt", "setting": "[3]; excised roots", "result": "below 100 μM"}]}
{"compound": "[Gd]", "note": "[gadolinium]", "values": [{"measurement": "suppression of the response of roots to eATP", "setting": "[3]", "result": "completely suppressed"}, {"measurement": "blocking of nucleotide-induced gene expression changes", "setting": "[1]; cells pre-treated", "result": "partially blocked"}]}
{"compound": "phosphate", "values": [{"measurement": "effect on [Ca2+]cyt", "setting": "[3]; excised roots", "result": "Neither AMP or phosphate induced any significant change"}, {"measurement": "induction of membrane depolarization", "setting": "[2]", "result": "no effect"}]}
